Laboratory results as given in patent publication US10344025B2, “GLS1 inhibitors for treating disease” (Board of Regents, The University of Texas System, priority 2014, dated 2019).

Tests used:
[1] = test system: A549 cells; experiment: Proliferation Assay (A549 viability, Cell Titer Fluor, 72 hours); format: cell-based; settings: Homo sapiens, A549, 72 h
Procedure, shortened: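 Cell Titer Fluor fluorescence after 72 h compound treatment (0.5% DMSO, 37 °C, 5% CO2) of A549 cells plated 24 h earlier at 1000/well. Four-parameter logistic fitting gave IC50.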

[2] = biological target: purified recombinant human GAC (GLS1) (Homo sapiens (Human), UniProt O94925); experiment: GLS1 Enzymatic Activity Assay (dual-coupled enzymatic assay, resorufin/Amplex UltraRed readout); format: biochemical;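 also: glutamate from GAC coupled via glutamate oxidase and peroxidase to resorufin, read as fluorescence (ex 530, em 590 nm) kinetically or at 20 min, four-parameter logistic IC50 fit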
Chain of purified recombinant human GAC (GLS1) (O94925 other isoform, or with tags, fused parts or gaps): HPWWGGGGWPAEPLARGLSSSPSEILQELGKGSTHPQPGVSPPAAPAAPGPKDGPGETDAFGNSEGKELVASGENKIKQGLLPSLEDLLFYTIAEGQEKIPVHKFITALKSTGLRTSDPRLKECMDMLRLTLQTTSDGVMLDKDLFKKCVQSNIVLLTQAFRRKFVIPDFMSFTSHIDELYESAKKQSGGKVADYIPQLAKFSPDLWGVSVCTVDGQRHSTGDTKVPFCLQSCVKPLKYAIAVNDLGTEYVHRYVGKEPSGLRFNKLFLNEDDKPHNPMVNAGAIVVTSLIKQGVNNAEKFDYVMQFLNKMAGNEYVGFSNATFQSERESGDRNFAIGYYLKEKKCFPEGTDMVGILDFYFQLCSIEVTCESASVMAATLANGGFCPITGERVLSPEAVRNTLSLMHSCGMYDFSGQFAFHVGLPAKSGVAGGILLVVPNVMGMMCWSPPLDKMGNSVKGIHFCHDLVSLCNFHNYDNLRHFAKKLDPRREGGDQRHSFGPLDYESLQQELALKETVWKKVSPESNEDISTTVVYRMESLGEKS

| EC50 [1] | IC50 [2] | Compound |
| --- | --- | --- |
| 100 to 500 nM | 100 to 500 nM | O=C(CC1CCCC1)Nc1cn(CCCCn2cc(C(=O)NCc3cccnc3)nn2)nn1 [Example 309, 1-{4-[4-(2-cyclopentylacetamido)-1H-1,2,3-triazol-1-yl]butyl}-N-(pyridin-3-ylmethyl)-1H-1,2,3-triazole-4-carboxamide] |
| 100 to 500 nM | < 100 nM | O=C(CC1CCCCC1)Nc1cn(CCCCn2cc(C(=O)NCc3cccnc3)nn2)nn1 [Example 310, 1-{4-[4-(2-cyclohexylacetamido)-1H-1,2,3-triazol-1-yl]butyl}-N-(pyridin-3-ylmethyl)-1H-1,2,3-triazole-4-carboxamide] |
| 500 to 5000 nM | 100 to 500 nM | Cc1ccc(CC(=O)Nc2cn(CCCCn3cc(C(=O)NCC4CCCC4)nn3)nn2)cn1 [Example 311, N-(cyclopentylmethyl)-1-(4-{4-[2-(6-methylpyridin-3-yl)acetamido]-1H-1,2,3-triazol-1-yl}butyl)-1H-1,2,3-triazole-4-carboxamide] |
| 500 to 5000 nM | 100 to 500 nM | Cc1ccc(CC(=O)Nc2cn(CCCCn3cc(C(=O)NCC4CCCCC4)nn3)nn2)cn1 [Example 312, N-(cyclohexylmethyl)-1-(4-{4-[2-(6-methylpyridin-3-yl)acetamido]-1H-1,2,3-triazol-1-yl}butyl)-1H-1,2,3-triazole-4-carboxamide] |
| < 100 nM | < 100 nM | Cc1ccc(CC(=O)Nc2cn(CCCCn3cc(C(=O)NCc4cccc(OC(F)(F)F)c4)nn3)nn2)cn1 [Example 313, 1-(4-{4-[2-(6-methylpyridin-3-yl)acetamido]-1H-1,2,3-triazol-1-yl}butyl)-N-{[3-(trifluoromethoxy)phenyl]methyl}-1H-1,2,3-triazole-4-carboxamide] |
| 500 to 5000 nM | 100 to 500 nM | Cc1ccc(CNC(=O)c2cn(CCCCn3cc(NC(=O)Cc4ccccn4)nn3)nn2)cn1 [Example 314, N-[(6-methylpyridin-3-yl)methyl]-1-(4-{4-[2-(pyridin-2-yl)acetamido]-1H-1,2,3-triazol-1-yl}butyl)-1H-1,2,3-triazole-4-carboxamide] |
| 500 to 5000 nM | 100 to 500 nM | Cc1ccc(CNC(=O)c2cn(CCCCn3cc(NC(=O)Cc4cccnc4)nn3)nn2)cn1 [Example 315, N-[(6-methylpyridin-3-yl)methyl]-1-(4-{4-[2-(pyridin-3-yl)acetamido]-1H-1,2,3-triazol-1-yl}butyl)-1H-1,2,3-triazole-4-carboxamide] |
| 500 to 5000 nM | < 100 nM | Cc1ccc(CNC(=O)c2cn(CCCCn3cc(NC(=O)Cc4ccc(C)nc4)nn3)nn2)cn1 [Example 316, 1-(4-{4-[2-(6-methylpyridin-3-yl)acetamido]-1H-1,2,3-triazol-1-yl}butyl)-N-[(6-methylpyridin-3-yl)methyl]-1H-1,2,3-triazole-4-carboxamide] |
| 100 to 500 nM | 100 to 500 nM | Cc1ccc(CNC(=O)c2cn(CCCCn3cc(NC(=O)CC4CCCC4)nn3)nn2)cn1 [Example 317, 1-{4-[4-(2-cyclopentylacetamido)-1H-1,2,3-triazol-1-yl]butyl}-N-[(6-methylpyridin-3-yl)methyl]-1H-1,2,3-triazole-4-carboxamide] |
| < 100 nM | < 100 nM | Cc1ccc(CNC(=O)c2cn(CCCCn3cc(NC(=O)CC4CCCCC4)nn3)nn2)cn1 [Example 318, 1-{4-[4-(2-cyclohexylacetamido)-1H-1,2,3-triazol-1-yl]butyl}-N-[(6-methylpyridin-3-yl)methyl]-1H-1,2,3-triazole-4-carboxamide] |
| > 5000 nM | 500 to 5000 nM | Cc1ccc(CC(=O)Nc2cn(CCCCn3cc(C(=O)NCC4CC4)nn3)nn2)cn1 [Example 319, N-(cyclopropylmethyl)-1-(4-{4-[2-(6-methylpyridin-3-yl)acetamido]-1H-1,2,3-triazol-1-yl}butyl)-1H-1,2,3-triazole-4-carboxamide] |

Second part, the molecule before the results:

| Compound | EC50 [1] | IC50 [2] |
| --- | --- | --- |
| O=C(Cc1ccccn1)Nc1cn(CCCCn2cc(C(=O)NCc3cccc(OC(F)(F)F)c3)nn2)nn1 [Example 293, 1-(4-{4-[2-(pyridin-2-yl)acetamido]-1H-1,2,3-triazol-1-yl}butyl)-N-{[3-(trifluoromethoxy)phenyl]methyl}-1H-1,2,3-triazole-4-carboxamide] | 100 to 500 nM | < 100 nM |
| O=C(Cc1cccnc1)Nc1cn(CCCCn2cc(C(=O)NCc3cccc(OC(F)(F)F)c3)nn2)nn1 [Example 294, 1-(4-{4-[2-(pyridin-3-yl)acetamido]-1H-1,2,3-triazol-1-yl}butyl)-N-{[3-(trifluoromethoxy)phenyl]methyl}-1H-1,2,3-triazole-4-carboxamide] | 100 to 500 nM | < 100 nM |
| O=C(CC1CCCC1)Nc1cn(CCCCn2cc(C(=O)NCc3cccc(OC(F)(F)F)c3)nn2)nn1 [Example 295, 1-{4-[4-(2-cyclopentylacetamido)-1H-1,2,3-triazol-1-yl]butyl}-N-{[3-(trifluoromethoxy)phenyl]methyl}-1H-1,2,3-triazole-4-carboxamide] | < 100 nM | < 100 nM |
| O=C(CC1CCCCC1)Nc1cn(CCCCn2cc(C(=O)NCc3cccc(OC(F)(F)F)c3)nn2)nn1 [Example 296, 1-{4-[4-(2-cyclohexylacetamido)-1H-1,2,3-triazol-1-yl]butyl}-N-{[3-(trifluoromethoxy)phenyl]methyl}-1H-1,2,3-triazole-4-carboxamide] | < 100 nM | < 100 nM |
| Cc1ccc(CNC(=O)c2cn(CCCCn3cc(NC(=O)Cc4cccc(OC(F)(F)F)c4)nn3)nn2)cn1 [Example 299, N-[(6-methylpyridin-3-yl)methyl]-1-[4-(4-{2-[3-(trifluoromethoxy)phenyl]acetamido}-1H-1,2,3-triazol-1-yl)butyl]-1H-1,2,3-triazole-4-carboxamide] | < 100 nM | < 100 nM |
| Cc1ccc(CNC(=O)c2cn(CCCCn3cc(NC(=O)CC4CC4)nn3)nn2)cn1 [Example 300, 1-{4-[4-(2-cyclopropylacetamido)-1H-1,2,3-triazol-1-yl]butyl}-N-[(6-methylpyridin-3-yl)methyl]-1H-1,2,3-triazole-4-carboxamide] | > 5000 nM | 500 to 5000 nM |
| O=C(Cc1cccc(OC(F)(F)F)c1)Nc1cn(CCCCn2cc(C(=O)NCC3CC3)nn2)nn1 [Example 301, N-(cyclopropylmethyl)-1-[4-(4-{2-[3-(trifluoromethoxy)phenyl]acetamido}-1H-1,2,3-triazol-1-yl)butyl]-1H-1,2,3-triazole-4-carboxamide] | 500 to 5000 nM | 100 to 500 nM |
| O=C(CC1CCCCC1)Nc1cn(CCCCn2cc(C(=O)NCC3CC3)nn2)nn1 [Example 305, 1-{4-[4-(2-cyclohexylacetamido)-1H-1,2,3-triazol-1-yl]butyl}-N-(cyclopropylmethyl)-1H-1,2,3-triazole-4-carboxamide] | 500 to 5000 nM | 500 to 5000 nM |
| Cc1ccc(CC(=O)Nc2cn(CCCCn3cc(C(=O)NCc4ccccn4)nn3)nn2)cn1 [Example 306, 1-(4-{4-[2-(6-methylpyridin-3-yl)acetamido]-1H-1,2,3-triazol-1-yl}butyl)-N-(pyridin-2-ylmethyl)-1H-1,2,3-triazole-4-carboxamide] | 500 to 5000 nM | 100 to 500 nM |
| O=C(Cc1cccc(OC(F)(F)F)c1)Nc1cn(CCCCn2cc(C(=O)NCc3cccnc3)nn2)nn1 [Example 307, N-(pyridin-3-ylmethyl)-1-[4-(4-{2-[3-(trifluoromethoxy)phenyl]acetamido}-1H-1,2,3-triazol-1-yl)butyl]-1H-1,2,3-triazole-4-carboxamide] | 100 to 500 nM | < 100 nM |
